# From US12649727B2, “EFGR inhibitor, preparation method therefor and application thereof” (Abbisko Therapeutics Co., Ltd, priority 2020, dated 2026)
# Assays:
# Type in all cases: cell-based
# A431 (EGFR-WT) = assay: Proliferation experiment, A431 cell line (CellTiter-Glo); conditions: Homo sapiens, A-431; A431 cells, cultured for 72 hrs with compound, CTG analysis
# Experimental: [The procedure below names another cell line; the source lists this cell line under the same test.] (§1) Proliferation Experiment of Ba/F3 Cell Line
# (§2) (I) Reagents and Materials
# (§3) • Fetal bovine serum FBS (GBICO, Cat #10099-141); • CellTiter-Glo® luminescent cell viability assay kit (Promega, Cat #G7572); • Black transparent flat-bottom 96 well plate (Corning®, Cat #3603). (II) Instruments • SpectraMax multi-label microplate reader MD, 2104-0010A; • Carbon dioxide incubator, Thermo Scientific 3100 series; • Biological safety cabinet, Thermo Scientific, 1300 series model A2; • Inverted microscope, Olympus, CKX41SF; • Siemens refrigerator KK25E76TI. (III) Cell Lines and Culture Conditions
# (§4) (IV) Experimental Procedures 1. Cell Culture and Inoculation: • (1) Cells in the logarithmic growth phase were harvested and counted using a […]. Cell viability was detected by Trypan Blue Dye Exclusion Method to ensure cell viability above 90%. • (2) The cell concentration was adjusted to reach a desired final density; 90 μL of cell suspension was added to the 96-well plate. • (3) The cells were incubated overnight in the 96-well plate at 37° C., 5% CO2 and at 95% humidity.
# (§5) 2. T0 Reference Data: • (1) 10 μL PBS was added to each well of the TO plate containing the cells. • (2) The CTG reagent was thawed and the cell plate was equilibrated to room temperature for 30 min. • (3) An equal volume of CTG solution was added to each well. • (4) The cells were lysed by shaking on an orbital shaker for 5 min. • (5) The cell plate was left at room temperature for 20 min to stabilize the luminescence signal. • (6) The fluorescence signal values of TO were read. 3. Dilution and Addition of Compounds • (1) According to the compound information table, a corresponding volume of DMSO was added to the corresponding compound powder to prepare a 10 mM stock solution. • (2) A 1000-fold, 3.16-fold-diluted compound solution was prepared. • (3) The 1000× diluted compound solution was diluted 100-fold with PBS to prepare a 10-fold compound solution with a maximum concentration of […], including 9 concentrations, with 3.16-fold dilution, and 10 μL of the medicament solution was added to each well of the 96-well plate to seed the cells. Triplicate wells were set for each compound concentration, with a final concentration of DMSO being 0.1%. • (4) The cells were placed in the 96-well plate filled with the medicament at 37° C., 5% CO2 and at 95% humidity, and cultured for 72 hrs before CTG analysis. 4. Fluorescence Signal Reading • (1) The CTG reagent was thawed and the cell plate was equilibrated to room temperature for 30 min. • (2) An equal volume of CTG solution was added to each well. • (3) The cells were lysed by shaking on an orbital shaker for 5 min. • (4) The cell plate was left at room temperature for 20 min to stabilize the fluorescence signal. • (5) The fluorescence values were read. 5. Data Processing
# (§6) Data were analyzed using GraphPad Prism 7.0 software and fitted data were regressed using non-linear S-curves to obtain dose-response curves from which IC50 values (in nM) were calculated.
# [1] = molecular target: Ba/F3 EGFR-D770-N771ins_SVD (Homo sapiens, UniProt P00533, DUP768-770, cells depend on it); assay: Proliferation experiment of Ba/F3 cell line, EGFR-D770-N771ins_SVD (CellTiter-Glo); conditions: cultured for 72 hrs with compound, CTG analysis, read-out: Ba/F3 EGFR-D770-N771ins_SVD IC50
# Experimental: as §1, §2, §3, §4, §5, §6
# [2] = molecular target: Ba/F3 EGFR-V769_D770insASV (Homo sapiens, UniProt P00533, DUP767-769, cells depend on it); assay: Proliferation experiment of Ba/F3 cell line, EGFR-V769_D770insASV (CellTiter-Glo); conditions: cultured for 72 hrs with compound, CTG analysis, read-out: Ba/F3 EGFR-V769_D770insASV IC50
# Experimental: as §1, §2, §3, §4, §5, §6
# Ba/F3 EGFR-D770-N771ins_SVD, sequence (P00533 with tags, fused parts or gaps DUP768-770): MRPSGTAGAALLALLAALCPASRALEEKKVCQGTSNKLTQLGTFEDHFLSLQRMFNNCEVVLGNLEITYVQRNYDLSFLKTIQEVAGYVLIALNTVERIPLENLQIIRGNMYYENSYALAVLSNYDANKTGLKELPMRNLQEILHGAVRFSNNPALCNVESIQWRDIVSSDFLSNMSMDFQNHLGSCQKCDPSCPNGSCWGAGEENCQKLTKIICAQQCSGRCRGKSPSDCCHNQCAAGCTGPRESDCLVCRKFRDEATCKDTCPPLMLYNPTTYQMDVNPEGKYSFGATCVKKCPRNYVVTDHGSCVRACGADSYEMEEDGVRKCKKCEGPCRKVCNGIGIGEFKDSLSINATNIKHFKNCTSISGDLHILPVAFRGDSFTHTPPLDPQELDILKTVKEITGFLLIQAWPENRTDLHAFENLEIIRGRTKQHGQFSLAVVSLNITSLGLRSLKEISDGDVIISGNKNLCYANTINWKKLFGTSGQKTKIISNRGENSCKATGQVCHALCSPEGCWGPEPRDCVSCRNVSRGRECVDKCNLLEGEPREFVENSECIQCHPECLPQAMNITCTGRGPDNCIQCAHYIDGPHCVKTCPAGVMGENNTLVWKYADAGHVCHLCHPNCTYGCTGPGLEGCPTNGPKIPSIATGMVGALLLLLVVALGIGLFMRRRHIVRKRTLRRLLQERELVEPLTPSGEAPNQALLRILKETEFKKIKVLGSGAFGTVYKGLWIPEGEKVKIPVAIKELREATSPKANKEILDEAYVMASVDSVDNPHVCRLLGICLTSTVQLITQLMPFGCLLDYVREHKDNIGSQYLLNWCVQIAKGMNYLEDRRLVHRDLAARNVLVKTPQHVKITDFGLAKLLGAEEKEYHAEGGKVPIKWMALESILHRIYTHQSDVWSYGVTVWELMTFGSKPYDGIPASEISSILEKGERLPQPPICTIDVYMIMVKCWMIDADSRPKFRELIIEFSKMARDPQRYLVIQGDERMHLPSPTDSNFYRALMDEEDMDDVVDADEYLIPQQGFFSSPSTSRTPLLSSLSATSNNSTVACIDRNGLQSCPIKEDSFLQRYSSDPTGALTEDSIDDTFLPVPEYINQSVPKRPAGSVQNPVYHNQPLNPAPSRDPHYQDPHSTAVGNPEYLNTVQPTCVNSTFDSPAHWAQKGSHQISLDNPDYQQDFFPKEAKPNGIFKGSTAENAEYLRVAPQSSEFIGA
# Ba/F3 EGFR-V769_D770insASV, sequence (P00533 with tags, fused parts or gaps DUP767-769): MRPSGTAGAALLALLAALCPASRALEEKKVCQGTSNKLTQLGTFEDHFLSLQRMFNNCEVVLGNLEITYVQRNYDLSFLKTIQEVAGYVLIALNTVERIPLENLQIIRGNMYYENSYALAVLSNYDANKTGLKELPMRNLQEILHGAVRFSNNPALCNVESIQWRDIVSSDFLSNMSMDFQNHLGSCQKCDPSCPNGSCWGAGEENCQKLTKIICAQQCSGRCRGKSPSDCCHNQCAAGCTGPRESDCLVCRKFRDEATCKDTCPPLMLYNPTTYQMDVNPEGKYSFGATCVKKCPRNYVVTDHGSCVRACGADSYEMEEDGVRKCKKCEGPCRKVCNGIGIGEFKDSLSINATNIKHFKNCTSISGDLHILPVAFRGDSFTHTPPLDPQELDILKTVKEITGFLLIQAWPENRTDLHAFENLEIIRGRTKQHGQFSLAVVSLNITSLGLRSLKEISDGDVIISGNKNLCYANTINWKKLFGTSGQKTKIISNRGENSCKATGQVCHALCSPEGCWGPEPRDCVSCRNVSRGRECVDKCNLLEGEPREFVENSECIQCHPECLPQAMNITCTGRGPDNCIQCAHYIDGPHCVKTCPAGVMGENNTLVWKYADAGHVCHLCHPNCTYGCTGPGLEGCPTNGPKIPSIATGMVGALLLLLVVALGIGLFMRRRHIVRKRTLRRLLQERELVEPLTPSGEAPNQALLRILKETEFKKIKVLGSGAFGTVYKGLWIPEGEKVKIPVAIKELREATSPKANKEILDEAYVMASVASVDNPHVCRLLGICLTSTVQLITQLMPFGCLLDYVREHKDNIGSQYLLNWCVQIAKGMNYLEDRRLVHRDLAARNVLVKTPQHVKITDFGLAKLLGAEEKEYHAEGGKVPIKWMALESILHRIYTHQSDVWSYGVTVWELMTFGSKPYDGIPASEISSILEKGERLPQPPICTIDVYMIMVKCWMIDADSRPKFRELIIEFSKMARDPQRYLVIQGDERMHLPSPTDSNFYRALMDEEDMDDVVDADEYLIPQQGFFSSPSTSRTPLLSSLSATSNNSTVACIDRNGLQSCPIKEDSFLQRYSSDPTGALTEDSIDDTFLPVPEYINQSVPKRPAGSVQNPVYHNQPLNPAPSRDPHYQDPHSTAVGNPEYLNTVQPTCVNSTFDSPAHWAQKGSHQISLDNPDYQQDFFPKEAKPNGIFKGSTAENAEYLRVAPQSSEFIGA
Structure (SMILES),IC50 (A431 (EGFR-WT)),GI50 [1],GI50 [2]
"C=CC(=O)Nc1cc2c(Nc3cccc(-c4c(F)cccc4F)c3)ncnc2cc1OCCN1CCOCC1 [Example 26, N-(4-((2′,6′-difluoro-[1,1′-biphenyl]-3-yl)amino)-7-(2-morpholinoethoxy)quinazolin-6-yl)acrylamide]",33.4 nM,52.1 nM,97.4 nM
"C=CC(=O)Nc1cc2c(Nc3cccc(-c4c(F)cccc4F)c3)ncnc2cc1OCCCN1CCOCC1 [Example 27, N-(4-((2′,6′-difluoro-[1,1′-biphenyl]-3-yl)amino)-7-(3-morpholinopropoxy)quinazolin-6-yl)acrylamide]",204 nM,15.2 nM,44.3 nM
"C=CC(=O)Nc1cc2c(Nc3cccc(-c4c(F)cccc4F)c3)ncnc2cc1OCCCN1CCN(CC)CC1 [Example 28, N-(4-((2′,6′-difluoro-[1,1′-biphenyl]-3-yl)amino)-7-(3-(4-ethylpiperazin-1-yl)propoxy)quinazolin-6-yl)acrylamide]",362 nM,22.6 nM,21 nM
"C=CC(=O)Nc1cc2c(Nc3cccc(-c4c(F)cccc4F)c3)ncnc2cc1OCCCN1CCN(C2CC2)CC1 [Example 29, N-(7-(3-(4-cyclopropylpiperazin-1-yl)propoxy)-4-((2′,6′-difluoro-[1,1′-biphenyl]-3-yl)amino)quinazolin-6-yl)acrylamide]",51.8 nM,37 nM,44.6 nM
"C=CC(=O)Nc1cc2c(Nc3cccc(-c4c(F)cccc4F)c3)ncnc2cc1OCCCN1CCN(C2COC2)CC1 [Example 30, N-(4-((2′,6′-difluoro-[1,1′-biphenyl]-3-yl)amino)-7-(3-(4-(oxetan-3-yl)piperazin-1-yl)propoxy)quinazolin-6-yl)acrylamide]",68.1 nM,25.3 nM,54.1 nM
"C=CC(=O)Nc1cc2c(Nc3cccc(-c4c(F)cccc4F)c3)ncnc2cc1OCCCN1CCN(CC(F)(F)F)CC1 [Example 31, N-(4-((2′,6′-difluoro-[1,1′-biphenyl]-3-yl)amino)-7-(3-(4-(2,2,2-trifluoroethyl)piperazin-1-yl)propoxy)quinazolin-6-yl)acrylamide]",225 nM,68.2 nM,111 nM
"C=CC(=O)Nc1cc2c(Nc3cccc(-c4c(F)cccc4F)c3)ncnc2cc1OCCCN1CCN(C)C(=O)C1 [Example 32, N-(4-((2′,6′-difluoro-[1,1′-biphenyl]-3-yl)amino)-7-(3-(4-methyl-3-oxopiperazin-1-yl)propoxy)quinazolin-6-yl)acrylamide]",205 nM,35.9 nM,86.3 nM
"C=CC(=O)Nc1cc2c(Nc3cccc(-c4c(F)cccc4F)c3)ncnc2cc1OCCCN1CCN(C)CC1=O [Example 33, N-(4-((2′,6′-difluoro-[1,1′-biphenyl]-3-yl)amino)-7-(3-(4-methyl-2-oxopiperazin-1-yl)propoxy)quinazolin-6-yl)acrylamide]",458 nM,38.3 nM,68.3 nM
"C=CC(=O)Nc1cc2c(Nc3cccc(-c4c(F)cccc4F)c3)ncnc2cc1OCCCN1CC[C@@H](N(C)C)C1 [Example 34, (R)-N-(4-((2′,6′-difluoro-[1,1′-biphenyl]-3-yl)amino)-7-(3-(3-(dimethylamino)pyrrolidin-1-yl)propoxy)quinazolin-6-yl)acrylamide]",260 nM,21.5 nM,33.1 nM
"C=CC(=O)Nc1cc2c(Nc3cccc(-c4c(F)cccc4F)c3)ncnc2cc1OCCCN1CC[C@H](N(C)C)C1 [Example 35, (S)-N-(4-((2′,6′-difluoro-[1,1′-biphenyl]-3-yl)amino)-7-(3-(3-(dimethylamino)pyrrolidin-1-yl)propoxy)quinazolin-6-yl)acrylamide]",193 nM,26.8 nM,35.6 nM
"C=CC(=O)Nc1cc2c(Nc3cccc(-c4c(F)cccc4F)c3)ncnc2cc1OCCCN1CC(N(C)C)C1 [Example 36, N-(4-((2′,6′-difluoro-[1,1′-biphenyl]-3-yl)amino)-7-(3-(3-(dimethylamino)azetidin-1-yl)propoxy)quinazolin-6-yl)acrylamide]",235 nM,32.3 nM,68.6 nM
"C=CC(=O)Nc1cc2c(Nc3cccc(-c4c(F)cccc4F)c3)ncnc2cc1O[C@@H]1CCN(C)C1 [Example 37, (R)-N-(4-((2′,6′-difluoro-[1,1′-biphenyl]-3-yl)amino)-7-((1-methylpyrrolidin-3-yl)oxy)quinazolin-6-yl)acrylamide]",302 nM,31.6 nM,47.5 nM
"C=CC(=O)Nc1cc2c(Nc3ccc(F)c(-c4ccccc4F)c3)ncnc2cc1OCCCN1CCOCC1 [Example 38, N-(4-((2′,6-difluoro-[1,1′-biphenyl]-3-yl)amino)-7-(3-morpholinopropoxy)quinazolin-6-yl)acrylamide]",431 nM,23.6 nM,31.5 nM
"C=CC(=O)Nc1cc2c(Nc3ccc(F)c(-c4ccccc4F)c3)ncnc2cc1OCCCN1CCN(C)CC1 [Example 39, N-(4-((2′,6-difluoro-[1,1′-biphenyl]-3-yl)amino)-7-(3-(4-methylpiperazin-1-yl)propoxy)quinazolin-6-yl)acrylamide]",271 nM,18 nM,25.6 nM
"C=CC(=O)Nc1cc2c(Nc3ccc(F)c(-c4c(F)cccc4F)c3)ncnc2cc1OCCCN1CCN(C)CC1 [Example 40, N-(7-(3-(4-methylpiperazin-1-yl)propoxy)-4-((2′,6,6′-trifluoro-[1,1′-biphenyl]-3-yl)amino)quinazolin-6-yl)acrylamide]",372 nM,15 nM,25.4 nM
"C=CC(=O)Nc1cc2c(Nc3ccc(F)c(-c4ccc(F)cc4)c3)ncnc2cc1OCCCN1CCOCC1 [Example 41, N-(4-((4′,6-difluoro-[1,1′-biphenyl]-3-yl)amino)-7-(3-morpholinopropoxy)quinazolin-6-yl)acrylamide]",927 nM,19.2 nM,36.5 nM
"C=CC(=O)Nc1cc2c(Nc3ccc(F)c(-c4ccc(F)cc4)c3)ncnc2cc1OCCCN1CCN(C)CC1 [Example 42, N-(4-((4′,6-difluoro-[1,1′-biphenyl]-3-yl)amino)-7-(3-(4-methylpiperazin-1-yl)propoxy)quinazolin-6-yl)acrylamide]",287 nM,31.8 nM,55.6 nM
"C=CC(=O)Nc1cc2c(Nc3ccc(F)c(-c4ncccc4F)c3)ncnc2cc1OCCCN1CCN(C)CC1 [Example 43, N-(4-((4-fluoro-3-(3-fluoropyridin-2-yl)phenyl)amino)-7-(3-(4-methylpiperazin-1-yl)propoxy)quinazolin-6-yl)acrylamide]",284 nM,27.8 nM,49.3 nM
"C=CC(=O)Nc1cc2c(Nc3cccc(-c4ncccc4F)c3)ncnc2cc1OCCCN1CCN(C)CC1 [Example 44, N-(4-((3-(3-fluoropyridin-2-yl)phenyl)amino)-7-(3-(4-methylpiperazin-1-yl)propoxy)quinazolin-6-yl)acrylamide]",83 nM,13.9 nM,29.3 nM
"C=CC(=O)Nc1cc2c(Nc3cccc(-c4ccccc4F)c3)ncnc2cc1OCCCN1CCOCC1 [Example 45, N-(4-((2′-fluoro-[1,1′-biphenyl]-3-yl)amino)-7-(3-morpholinopropoxy)quinazolin-6-yl)acrylamide]",66 nM,17 nM,27 nM
"C=CC(=O)Nc1cc2c(Nc3cccc(-c4ccccc4F)c3)ncnc2cc1OCCCN1CCN(C)CC1 [Example 46, N-(4-((2′-fluoro-[1,1′-biphenyl]-3-yl)amino)-7-(3-(4-methylpiperazin-1-yl)propoxy)quinazolin-6-yl)acrylamide]",120 nM,11.9 nM,15.8 nM
